Experiments:
Format in all cases: biochemical
CRIK(h) = CRIK(h) (Homo sapiens (Human), UniProt O14578); assay: KinaseProfiler panel; set-up: dose or concentration left out as unconfirmed; settings: activity remaining
PKAα = PKAα (Homo sapiens (Human), UniProt P17612); assay: KinaseProfiler radiometric assay (14-440KP); settings: mean of at least two independent experiments
Source text: In another aspect, disclosed is a method of inhibiting citron kinase in a sample, comprising contacting the sample with a compound described herein (e.g., a compound of formula (I) or a pharmaceutically acceptable salt thereof), or a pharmaceutical composition described herein (e.g., a pharmaceutical composition comprising a compound of formula (I) or a pharmaceutically acceptable salt thereof), in an amount effective to inhibit citron kinase. In some embodiments, the step of contacting the sample with the compound comprises administering the compound to a subject (e.g., a subject) suffering from cancer. Methods of determining kinase inhibition are well known in the art. For example, kinase activity of an enzyme and the inhibitory capacity of a test compound can be determined by measuring enzyme specific phosphorylation of a substrate. Commercial assays and kits can be employed. For example, kinase inhibition can be determined using a radiometric binding assay, such as using KinaseProfiler™ technology (Eurofins Discovery). This assay method directly detects product formation without the use of modified substrates or coupling enzymes. Test compounds are incubated with kinase, substrate, required cofactors and radioisotope labeled ATP. Following incubation, unreacted radioactive ATP is removed by washing and incorporation of the radiolabeled phosphate into the kinase substrate is assayed to detect phosphoryltransferase activity, which is directly proportional to the amount of phosphorylated substrate. Inhibition of the kinase by a kinase inhibitor prevents phosphorylation of the substrate and thereby limits the incorporation of radiolabeled phosphate. Such an assay is compatible with a microwell assay format, allowing simultaneous determination of IC50 of multiple compounds.
The effect of various compounds on the inhibition of other kinases has also been determined. Table 2 reports measured IC50 values; value units are nanomolar inhibition.

Lyn(h) = Lyn(h) (Homo sapiens (Human), UniProt P07948); assay: KinaseProfiler panel; set-up: dose or concentration left out as unconfirmed; settings: activity remaining
MOK(h) = MOK(h) (Homo sapiens (Human), UniProt Q9UQ07); assay: KinaseProfiler panel; settings: activity remaining
PRKG2(h) = PRKG2(h) (Homo sapiens (Human), UniProt Q13237); assay: KinaseProfiler panel; set-up: dose or concentration left out as unconfirmed; settings: activity remaining
NLK(h) = NLK(h) (Homo sapiens (Human), UniProt Q9UBE8); assay: KinaseProfiler panel; settings: activity remaining
MSK2(h) = MSK2(h) (Homo sapiens (Human), UniProt O75676); assay: KinaseProfiler panel; set-up: dose or concentration left out as unconfirmed; settings: activity remaining
Plk1(h) = Plk1(h) (Homo sapiens (Human), UniProt P53350); assay: KinaseProfiler panel; set-up: dose or concentration left out as unconfirmed; settings: activity remaining
DDR1(h) = DDR1(h) (Homo sapiens (Human), UniProt Q08345); assay: KinaseProfiler panel; set-up: dose or concentration left out as unconfirmed; settings: activity remaining
SLK(h) = SLK(h) (Homo sapiens (Human), UniProt Q9H2G2); assay: KinaseProfiler panel; set-up: dose or concentration left out as unconfirmed; settings: activity remaining
Wee1(h) = Wee1(h) (Homo sapiens (Human), UniProt P30291); assay: KinaseProfiler panel; set-up: dose or concentration left out as unconfirmed; settings: activity remaining
B-Raf(h) = B-Raf(h) (Homo sapiens (Human), UniProt P15056); assay: KinaseProfiler panel; set-up: dose or concentration left out as unconfirmed; settings: activity remaining
EphB3(h) = EphB3(h) (Homo sapiens (Human), UniProt P54753); assay: KinaseProfiler panel; set-up: dose or concentration left out as unconfirmed; settings: activity remaining
Flt1(h) = Flt1(h) (Homo sapiens (Human), UniProt P17948); assay: KinaseProfiler panel; set-up: dose or concentration left out as unconfirmed; settings: activity remaining
DCAMKL3(h) = DCAMKL3(h) (Homo sapiens (Human), UniProt Q9C098); assay: KinaseProfiler panel; set-up: dose or concentration left out as unconfirmed; settings: activity remaining
Flt3(h) = Flt3(h) (Homo sapiens (Human), UniProt P36888); assay: KinaseProfiler panel; set-up: dose or concentration left out as unconfirmed; settings: activity remaining
PhKγ2(h) = PhKγ2(h) (Homo sapiens (Human), UniProt P15735); assay: KinaseProfiler panel; set-up: dose or concentration left out as unconfirmed; settings: activity remaining
CDK18/cyclinY(h) = CDK18/cyclinY(h) (Homo sapiens (Human), UniProt Q07002); assay: KinaseProfiler panel; set-up: dose or concentration left out as unconfirmed; settings: activity remaining
PIP5K1a(h) = PIP5K1a(h) (Homo sapiens (Human), UniProt Q99755); assay: KinaseProfiler panel; set-up: dose or concentration left out as unconfirmed; settings: activity remaining
MINK(h) = MINK(h) (Homo sapiens (Human), UniProt Q8N4C8); assay: KinaseProfiler panel; set-up: dose or concentration left out as unconfirmed; settings: activity remaining
A-Raf(h) = A-Raf(h) (Homo sapiens (Human), UniProt P10398); assay: KinaseProfiler panel; set-up: dose or concentration left out as unconfirmed; settings: activity remaining
PKG1β(h) = PKG1β(h) (Homo sapiens (Human), UniProt Q13976); assay: KinaseProfiler panel; set-up: dose or concentration left out as unconfirmed; settings: activity remaining
CDK17/cyclinY(h) = CDK17/cyclinY(h) (Homo sapiens (Human), UniProt Q00537); assay: KinaseProfiler panel; set-up: dose or concentration left out as unconfirmed; settings: activity remaining
Fer(h) = Fer(h) (Homo sapiens (Human), UniProt P16591); assay: KinaseProfiler panel; set-up: dose or concentration left out as unconfirmed; settings: activity remaining
EphA4(h) = EphA4(h) (Homo sapiens (Human), UniProt P54764); assay: KinaseProfiler panel; set-up: dose or concentration left out as unconfirmed; settings: activity remaining
IKKε(h) = IKKε(h) (Homo sapiens (Human), UniProt Q14164); assay: KinaseProfiler panel; set-up: dose or concentration left out as unconfirmed; settings: activity remaining

Sequence of MOK(h) (Q9UQ07 whole entry): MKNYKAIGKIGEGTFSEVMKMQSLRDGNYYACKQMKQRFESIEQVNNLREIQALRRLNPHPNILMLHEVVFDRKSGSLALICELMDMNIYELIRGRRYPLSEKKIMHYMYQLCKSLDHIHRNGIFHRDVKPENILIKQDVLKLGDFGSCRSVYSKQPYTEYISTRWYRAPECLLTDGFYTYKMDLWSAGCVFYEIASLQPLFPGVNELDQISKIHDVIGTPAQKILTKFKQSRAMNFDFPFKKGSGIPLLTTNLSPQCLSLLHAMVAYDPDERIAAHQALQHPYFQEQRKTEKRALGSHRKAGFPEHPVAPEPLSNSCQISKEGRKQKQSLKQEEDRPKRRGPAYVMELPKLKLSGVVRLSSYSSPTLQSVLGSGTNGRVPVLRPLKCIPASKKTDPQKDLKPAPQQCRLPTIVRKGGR
Sequence of Fer(h) (P16591 whole entry): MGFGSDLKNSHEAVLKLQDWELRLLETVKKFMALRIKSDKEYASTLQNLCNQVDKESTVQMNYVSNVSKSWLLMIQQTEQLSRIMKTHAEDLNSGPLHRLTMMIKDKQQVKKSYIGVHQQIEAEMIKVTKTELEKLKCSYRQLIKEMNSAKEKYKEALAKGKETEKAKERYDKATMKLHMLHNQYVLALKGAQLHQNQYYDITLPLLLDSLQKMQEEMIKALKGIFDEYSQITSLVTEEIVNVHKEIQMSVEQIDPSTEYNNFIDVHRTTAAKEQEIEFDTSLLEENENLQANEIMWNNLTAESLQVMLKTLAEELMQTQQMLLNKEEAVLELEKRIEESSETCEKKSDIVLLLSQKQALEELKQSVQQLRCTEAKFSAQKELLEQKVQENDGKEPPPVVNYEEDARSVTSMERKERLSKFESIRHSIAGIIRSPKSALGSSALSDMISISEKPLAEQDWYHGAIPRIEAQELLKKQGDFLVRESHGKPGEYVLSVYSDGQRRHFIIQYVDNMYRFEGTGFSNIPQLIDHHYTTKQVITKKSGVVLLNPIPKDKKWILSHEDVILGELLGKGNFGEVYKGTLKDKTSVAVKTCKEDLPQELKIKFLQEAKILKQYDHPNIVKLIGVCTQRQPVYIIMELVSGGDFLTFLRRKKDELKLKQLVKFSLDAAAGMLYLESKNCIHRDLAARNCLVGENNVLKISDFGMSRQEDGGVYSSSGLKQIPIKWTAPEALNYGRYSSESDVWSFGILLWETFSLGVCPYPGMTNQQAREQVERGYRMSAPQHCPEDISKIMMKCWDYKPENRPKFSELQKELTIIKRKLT
Sequence of DDR1(h) (Q08345 19-913): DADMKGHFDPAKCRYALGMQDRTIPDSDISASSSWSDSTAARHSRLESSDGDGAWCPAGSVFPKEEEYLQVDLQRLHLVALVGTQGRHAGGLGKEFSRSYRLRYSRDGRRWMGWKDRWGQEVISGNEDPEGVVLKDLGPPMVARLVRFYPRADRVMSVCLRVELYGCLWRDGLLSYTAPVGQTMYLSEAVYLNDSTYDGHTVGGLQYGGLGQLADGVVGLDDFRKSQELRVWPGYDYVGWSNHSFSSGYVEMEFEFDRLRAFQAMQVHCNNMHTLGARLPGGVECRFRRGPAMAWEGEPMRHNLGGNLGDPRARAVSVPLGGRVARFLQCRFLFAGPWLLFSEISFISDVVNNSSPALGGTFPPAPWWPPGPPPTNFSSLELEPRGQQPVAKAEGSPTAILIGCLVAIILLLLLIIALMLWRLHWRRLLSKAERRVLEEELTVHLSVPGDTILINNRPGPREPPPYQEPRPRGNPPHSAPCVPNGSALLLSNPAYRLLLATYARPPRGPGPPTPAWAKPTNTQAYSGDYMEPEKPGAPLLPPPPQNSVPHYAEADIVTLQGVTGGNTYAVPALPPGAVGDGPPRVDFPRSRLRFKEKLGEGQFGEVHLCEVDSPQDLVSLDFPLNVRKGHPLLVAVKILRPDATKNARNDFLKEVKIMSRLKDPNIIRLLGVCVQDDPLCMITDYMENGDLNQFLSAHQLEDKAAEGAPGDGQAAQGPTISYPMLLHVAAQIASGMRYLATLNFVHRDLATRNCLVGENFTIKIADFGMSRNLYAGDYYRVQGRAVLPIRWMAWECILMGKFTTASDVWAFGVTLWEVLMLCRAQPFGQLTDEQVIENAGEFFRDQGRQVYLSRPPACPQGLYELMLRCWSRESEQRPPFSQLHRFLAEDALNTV
Sequence of MSK2(h) (O75676 whole entry): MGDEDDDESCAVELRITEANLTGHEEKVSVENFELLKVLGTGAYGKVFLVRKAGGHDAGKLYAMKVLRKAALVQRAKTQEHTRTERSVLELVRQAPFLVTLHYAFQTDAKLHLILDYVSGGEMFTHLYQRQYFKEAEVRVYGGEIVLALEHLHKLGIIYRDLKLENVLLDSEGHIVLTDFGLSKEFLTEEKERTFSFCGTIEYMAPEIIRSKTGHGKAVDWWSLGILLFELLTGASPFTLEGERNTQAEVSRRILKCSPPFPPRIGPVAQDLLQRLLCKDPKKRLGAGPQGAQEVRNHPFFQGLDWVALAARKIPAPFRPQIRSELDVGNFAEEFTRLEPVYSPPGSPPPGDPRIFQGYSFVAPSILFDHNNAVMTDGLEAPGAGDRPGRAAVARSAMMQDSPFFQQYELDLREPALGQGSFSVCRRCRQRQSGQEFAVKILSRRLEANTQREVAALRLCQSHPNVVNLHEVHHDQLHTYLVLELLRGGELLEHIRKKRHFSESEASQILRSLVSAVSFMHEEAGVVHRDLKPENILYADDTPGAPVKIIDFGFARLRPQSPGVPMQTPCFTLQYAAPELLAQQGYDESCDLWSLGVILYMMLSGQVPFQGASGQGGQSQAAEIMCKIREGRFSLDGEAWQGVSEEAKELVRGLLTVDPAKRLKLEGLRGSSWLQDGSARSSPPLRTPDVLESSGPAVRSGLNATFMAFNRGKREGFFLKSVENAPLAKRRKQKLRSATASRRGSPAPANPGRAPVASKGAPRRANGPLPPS
Sequence of CRIK(h) (O14578 whole entry): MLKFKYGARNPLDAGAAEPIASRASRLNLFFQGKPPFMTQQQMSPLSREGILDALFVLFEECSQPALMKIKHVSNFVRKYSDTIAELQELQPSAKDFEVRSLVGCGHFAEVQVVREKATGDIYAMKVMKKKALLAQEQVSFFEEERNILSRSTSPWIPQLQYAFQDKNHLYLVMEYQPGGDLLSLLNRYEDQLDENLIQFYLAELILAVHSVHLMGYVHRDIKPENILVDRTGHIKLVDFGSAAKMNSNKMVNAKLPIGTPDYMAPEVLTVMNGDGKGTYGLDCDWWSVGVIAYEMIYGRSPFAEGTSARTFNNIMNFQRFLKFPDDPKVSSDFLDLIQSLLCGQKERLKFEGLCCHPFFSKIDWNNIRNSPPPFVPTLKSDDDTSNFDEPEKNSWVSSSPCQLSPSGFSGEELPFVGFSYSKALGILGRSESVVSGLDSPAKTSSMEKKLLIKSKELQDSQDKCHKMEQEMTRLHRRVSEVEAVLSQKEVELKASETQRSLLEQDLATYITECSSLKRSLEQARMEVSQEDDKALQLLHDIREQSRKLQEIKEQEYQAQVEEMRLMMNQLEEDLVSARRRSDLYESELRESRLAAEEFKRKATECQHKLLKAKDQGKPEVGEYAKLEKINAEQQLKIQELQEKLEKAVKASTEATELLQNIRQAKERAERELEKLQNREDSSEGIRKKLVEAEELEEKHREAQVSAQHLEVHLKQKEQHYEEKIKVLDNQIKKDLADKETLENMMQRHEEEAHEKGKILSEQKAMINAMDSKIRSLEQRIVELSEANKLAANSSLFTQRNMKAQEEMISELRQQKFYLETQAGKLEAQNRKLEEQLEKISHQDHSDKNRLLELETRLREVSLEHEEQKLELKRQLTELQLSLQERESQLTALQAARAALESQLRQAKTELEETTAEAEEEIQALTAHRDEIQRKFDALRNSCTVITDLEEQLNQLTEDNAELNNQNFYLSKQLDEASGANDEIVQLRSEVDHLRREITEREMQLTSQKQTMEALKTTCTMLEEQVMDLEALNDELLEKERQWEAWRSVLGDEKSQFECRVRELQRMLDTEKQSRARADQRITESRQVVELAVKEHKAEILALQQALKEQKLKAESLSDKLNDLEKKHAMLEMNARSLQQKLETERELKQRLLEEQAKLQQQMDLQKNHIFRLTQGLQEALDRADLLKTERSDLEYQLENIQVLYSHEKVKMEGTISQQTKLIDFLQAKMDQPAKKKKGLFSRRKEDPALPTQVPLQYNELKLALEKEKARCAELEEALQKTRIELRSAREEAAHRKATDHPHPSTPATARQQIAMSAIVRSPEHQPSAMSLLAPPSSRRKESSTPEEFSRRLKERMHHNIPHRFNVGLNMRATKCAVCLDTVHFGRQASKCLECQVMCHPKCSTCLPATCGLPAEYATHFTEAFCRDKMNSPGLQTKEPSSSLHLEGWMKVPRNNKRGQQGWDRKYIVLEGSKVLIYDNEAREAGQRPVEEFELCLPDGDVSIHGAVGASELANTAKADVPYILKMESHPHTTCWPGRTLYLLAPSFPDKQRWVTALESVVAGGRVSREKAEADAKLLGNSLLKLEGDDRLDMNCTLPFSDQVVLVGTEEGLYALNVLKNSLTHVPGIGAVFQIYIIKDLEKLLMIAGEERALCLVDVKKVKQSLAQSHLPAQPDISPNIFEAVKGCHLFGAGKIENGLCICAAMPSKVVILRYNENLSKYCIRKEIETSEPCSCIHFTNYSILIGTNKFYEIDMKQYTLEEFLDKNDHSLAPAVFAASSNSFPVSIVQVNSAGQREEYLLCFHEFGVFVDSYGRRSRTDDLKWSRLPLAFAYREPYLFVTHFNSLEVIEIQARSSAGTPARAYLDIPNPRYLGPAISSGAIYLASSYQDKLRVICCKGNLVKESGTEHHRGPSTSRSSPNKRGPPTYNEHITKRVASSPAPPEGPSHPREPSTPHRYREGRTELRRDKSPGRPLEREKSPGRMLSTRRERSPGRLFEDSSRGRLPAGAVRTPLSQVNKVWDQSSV

Cc1cc2c(-c3ccc(NC(=O)[C@H](N)CC(C)(C)C)cc3C)ccnc2[nH]1 [Compound F-90, (2R)-2-Amino-4,4-dimethyl-N-[3-methyl-4-(2-methyl-1H-pyrrolo[2,3-b]pyridin-4-yl)phenyl]pentanamide]
% Activity (CRIK(h)): 0% | IC50 (PKAα): > 3 µM | % Activity (Lyn(h)): 80% | % Activity (MOK(h)): 90% | % Activity (PRKG2(h)): 110% | % Activity (NLK(h)): 98% | % Activity (MSK2(h)): 88% | % Activity (Plk1(h)): 111% | % Activity (DDR1(h)): 98% | % Activity (SLK(h)): 109% | % Activity (Wee1(h)): 94% | % Activity (B-Raf(h)): 110% | % Activity (EphB3(h)): 79% | % Activity (Flt1(h)): 125% | % Activity (DCAMKL3(h)): 86% | % Activity (Flt3(h)): 84% | % Activity (PhKγ2(h)): 98% | % Activity (CDK18/cyclinY(h)): 94% | % Activity (PIP5K1a(h)): 103% | % Activity (MINK(h)): 89% | % Activity (A-Raf(h)): 97% | % Activity (PKG1β(h)): 92% | % Activity (CDK17/cyclinY(h)): 108% | % Activity (Fer(h)): 103% | % Activity (EphA4(h)): 92% | % Activity (IKKε(h)): 87%

From patent US20250243196A1, “CITRON KINASE INHIBITORS” (The Cleveland Clinic Foundation, priority 2021, published 2025)
